Source: patent US20160193216A1 (Nimbus Iris, Inc., priority 2012, published 2016)
Like-named read-outs stand apart in the source and are kept apart here.

Columns and labels:
IRAK4 = biological target: T1, IRAK4 (Homo sapiens, UniProt Q9NWZ3); assay: IRAK-4 activity inhibition assay (Caliper); format: biochemical; conditions: 37 μM ATP, 3.5 nM IRAK4
T1 sequence (Q9NWZ3 1-460): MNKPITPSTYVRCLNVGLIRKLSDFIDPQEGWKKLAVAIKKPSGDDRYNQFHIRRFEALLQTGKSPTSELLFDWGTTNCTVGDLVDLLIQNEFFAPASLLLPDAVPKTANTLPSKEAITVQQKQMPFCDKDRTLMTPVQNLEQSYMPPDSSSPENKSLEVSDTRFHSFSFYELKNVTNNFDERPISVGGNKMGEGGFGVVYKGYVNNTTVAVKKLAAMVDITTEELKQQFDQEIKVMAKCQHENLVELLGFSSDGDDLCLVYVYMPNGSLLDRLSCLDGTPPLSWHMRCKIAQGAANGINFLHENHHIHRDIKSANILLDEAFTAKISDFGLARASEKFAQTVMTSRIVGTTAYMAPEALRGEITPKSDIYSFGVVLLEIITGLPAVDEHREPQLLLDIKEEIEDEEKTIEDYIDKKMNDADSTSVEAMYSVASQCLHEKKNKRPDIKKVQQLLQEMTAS

THP-1 cells = assay: LPS induced cytokine (TNFα and IL8) production assay in THP-1 cells; format: cell-based; conditions: Homo sapiens, 300 ng/mL LPS
Method: Cytokine Production Assay
Provided compounds were also assayed in an LPS (Lipopolysacharide) or R848 (TLR-7 agonist) induced cytokine (TNFα and IL8) production assay in THP-1 cells, human peripheral blood mononuclear cells (hPBMC), and whole blood. The exemplary protocol for this assay in THP-1 cells was as follows below.
THP-1 cells from ATCC (TIB-202) were cultured in RPMI Medium 1640 (Invitrogen, Cat No. A10491-01), 10% fetal bovine serum (Invitrogen, Cat No. 10099141, Lot No. 8172882) containing 100 U/mL Penicillin, 100 μg/mL streptomycin (Invitrogen, Cat No. 15140-122), and 50 uM 2-Mercaptoethanol (Invitrogen, Cat No. 21985023). LPS-EK ultra pure (Invivogen, Cat No. tlrl-peklps) was used to induce IL8 and TNFα production, that was detected in the cell culture supernatant by IL8 HTRF kit (Cisbio, Cat No. 62IL8PEB) and TNFα HTRF kit (Cisbio, Cat No. 62TNFPEB), as per manufacturer instructions. Cells were cultured in 96 well assay plates at 100,000 cells per well, and compounds diluted in final 0.3% DMSO were pre-incubated with cells for 1 hour prior to stimulation with 300 ng/mL LPS. Cytokine production in cell supernatant was measured at 5 hours for TNFα and IL8 production, and for 16 hours for IL8 production and assessment of cell viability.
The compound numbers correspond to the compound numbers in Table 1. […] “NA” stands for “not assayed.”

IC50 (IRAK4) [nM]	IC50 (THP-1 cells; read-out: IL8 production IC50) [nM]	IC50 (THP-1 cells; read-out: TNFα production IC50) [nM]	SMILES
< 5000	≤ 500	≤ 500	NC(=O)[C@@H](O)C[C@H]1CCc2sc3ncnc(N[C@H]4CC[C@H](N5CCOCC5)CC4)c3c21 [Compound I-120, (S)-2-hydroxy-3-((R)-4-(((1r,4R)-4-morpholinocyclohexyl)amino)-6,7-dihydro-5H-cycyclopenta[4,5]thieno[2,3-d]pyrimidin-5-yl)propanamide]
< 5000	≤ 500	≤ 500	NC(=O)C[C@H]1CCc2sc3ncnc(O[C@H]4CC[C@H](N5CCCCC5)CC4)c3c21 [Compound I-214, 2-[(3R)-12-[[4-(piperidin-1-yl)cyclohexyl]oxy]-7-thia-9,11-diazatricyclo[6.4.0.0[2,6]]dodeca-1(8),2(6),9,11-tetraen-3-yl]acetamide]
< 5000		500 to 1000	C[C@@H](O)C[C@H]1CCc2sc3ncnc(O[C@H]4CC[C@H](N(C)CC(=O)N5CCCC5)CC4)c3c21 [Compound I-109, 2-[(4-[[(3R)-3-[(2R)-2-hydroxypropyl]-7-thia-9,11-diazatricyclo[6.4.0.0[2,6]]dodeca-1(8),2(6),9,11-tetraen-12-yl]oxy]cyclohexyl)(methyl)amino]-1-(pyrrolidin-1-yl)ethan-1-one]
< 5000	500 to 1000	500 to 1000	CC[C@@H](O)C[C@H]1CCc2sc3ncnc(O[C@H]4CC[C@H](N(C)C)CC4)c3c21 [Compound I-106]
< 5000		1000 to 5000	N#CC(C[C@H]1CCc2sc3ncnc(O[C@H]4CC[C@H](N5CCOCC5)CC4)c3c21)C(N)=O (stereo partly drawn) [Compound I-86, 2-cyano-3-((R)-4-(((1r,4R)-4-morpholinocyclohexyl)oxy)-6,7-dihydro-5H-cyclopenta[4,5]thieno[2,3-d]pyrimidin-5-yl)propanamide]
< 5000	1000 to 5000	500 to 1000	OC[C@@H]1CCc2sc3ncnc(O[C@H]4CC[C@H](N5CCOCC5)CC4)c3c2C1 [Compound I-215, [(12R)-3-[[4-(morpholin-4-yl)cyclohexyl]oxy]-8-thia-4,6-diazatricyclo[7.4.0.0[2,7]]trideca-1(9),2(7),3,5-tetraen-12-yl]methanol]
< 5000	≥ 5000	≥ 5000	CN(C)[C@H]1CC[C@H](Nc2ncnc3sc4c(c23)C[C@@H](C(N)=O)CC4)CC1 [Compound I-230, (12S)-3-[[4-(dimethylamino)cyclohexyl]amino]-8-thia-4,6-diazatricyclo[7.4.0.0[2,7]]trideca-1(9),2(7),3,5-tetraene-12-carboxamide]
< 5000	≤ 500	≤ 500	NC(=O)[C@@H](O)C[C@H]1CCc2sc3ncnc(O[C@H]4CC[C@H](N5CCCCC5)CC4)c3c21 [Compound I-217, (S)-2-hydroxy-3-((R)-4-(((1r,4R)-4-(piperidin-1-yl)cyclohexyl)oxy)-6,7-dihydro-5H-cyclopenta[4,5]thieno[2,3-d]pyrimidin-5-yl)propanamide]
< 5000	500 to 1000	500 to 1000	CN[C@H]1CC[C@H](Oc2ncnc3sc4c(c23)[C@@H](C[C@H](O)C(N)=O)CC4)CC1 [Compound I-137, (2S)-2-hydroxy-3-[(3R)-12-[[4-(methylamino)cyclohexyl]oxy]-7-thia-9,11-diazatricyclo[6.4.0.0[2,6]]dodeca-1(8),2(6),9,11-tetraen-3-yl]propanamide]
< 5000	≤ 500	≤ 500	CN(C)[C@H]1CC[C@H](Oc2ncnc3sc4c(c23)[C@@H](CC(F)(F)C(N)=O)CC4)CC1 [Compound I-144, 3-[(3R)-12-[[4-(dimethylamino)cyclohexyl]oxy]-7-thia-9,11-diazatricyclo[6.4.0.0[2,6]]dodeca-1(8),2(6),9,11-tetraen-3-yl]-2,2-difluoropropanamide]
< 5000	500 to 1000	≤ 500	NC(=O)C[C@H]1CCc2sc3ncnc(O[C@H]4CC[C@H](N5CCC(F)(F)CC5)CC4)c3c21 [Compound I-229, 2-[(3R)-12-[[4-(4,4-difluoropiperidin-1-yl)cyclohexyl]oxy]-7-thia-9,11-diazatricyclo[6.4.0.0[2,6]]dodeca-1(8),2(6),9, 11-tetraen-3-yl]acetamide]
< 5000	500 to 1000	500 to 1000	CN(C)[C@H]1CC[C@H](Oc2ncnc3sc4c(c23)[C@@H](CC(C#N)C(N)=O)CC4)CC1 (mixture of isomers) [Compound I-51, 2-cyano-3-(12-[[4-(dimethylamino)cyclohexyl]oxy]-7-thia-9,11-diazatricyclo[6.4.0.0[2,6]]dodeca-1(12),2(6),8,10-tetraen-3-yl)propanamide]
< 5000	≤ 500	500 to 1000	[2H]C1([2H])c2sc3ncnc(O[C@H]4CC[C@H](N5CCOCC5)CC4)c3c2[C@@H](CC(N)=O)C1([2H])[2H] [Compound I-188, 2-[(3R)-12-[[4-(morpholin-4-yl)cyclohexyl]oxy](4,4,5,5-d4)-7-thia-9, 11-diazatricyclo[6.4.0.0[2,6]]dodeca-1(8),2(6),9, 11-tetraen-3-yl]acetamide-d4]
	1000 to 5000	1000 to 5000	NC(=O)[C@H](O)C[C@H]1CCc2sc3ncnc(O[C@H]4CC[C@H](N5CCOCC5)CC4)c3c21 [Compound I-93, (R)-2-hydroxy-3-((R)-4-(((1r,4R)-4-morpholinocyclohexyl)oxy)-6,7-dihydro-5H-cyclopenta[4,5]thieno[2,3-d]pyrimidin-5-yl)propanamide]
< 5000	1000 to 5000	1000 to 5000	NC(=O)[C@H]1CCc2sc3ncnc(N[C@H]4CC[C@H](N5CCOCC5)CC4)c3c2C1 [Compound I-207, (12S)-3-[[4-(morpholin-4-yl)cyclohexyl]amino]-8-thia-4,6-diazatricyclo[7.4.0.0[2,7]]trideca-1(9),2(7),3,5-tetraene-12-carboxamide]
< 5000	1000 to 5000	500 to 1000	CC[C@@H](O)C[C@H]1CCc2sc3ncnc(O[C@H]4CC[C@H](N(C)CC(=O)N5CCCC5)CC4)c3c21 [Compound I-71, 2-[(4-[[(3R)-3-[(2R)-2-hydroxybutyl]-7-thia-9,11-diazatricyclo[6.4.0.0[2,6]]dodeca-1(8),2(6),9,11-tetraen-12-yl]oxy]cyclohexyl)(methyl)amino]-1-(pyrrolidin-1-yl)ethan-1-one]
< 5000		≥ 5000	CN(CC(=O)N1CCCC1)[C@H]1CC[C@H](Oc2ncnc3sc4c(c23)[C@@H](CCC(N)=O)CC4)CC1 [Compound I-94, 3-((S)-4-(((1r,4S)-4-(methyl(2-oxo-2-(pyrrolidin-1-yl)ethyl)amino)cyclohexyl)oxy)-6,7-dihydro-5H-cyclopenta[4,5]thieno[2,3-d]pyrimidin-5-yl)propanamide]
< 5000	1000 to 5000	500 to 1000	CC[C@@H](O)C[C@H]1CCc2sc3ncnc(O[C@H]4CC[C@H](N5CCOCC5)CC4)c3c21 [Compound I-65, (R)-1-((R)-4-(((1r,4R)-4-morpholinocyclohexyl)oxy)-6,7-dihydro-5H-cyclopent[4,5]thieno[2,3-d]pyrimidin-5-yl)butan-2-ol]
< 5000	1000 to 5000	1000 to 5000	CN(C)[C@H]1CC[C@H](Oc2ncnc3sc4c(c23)[C@@H](C[C@@H](O)C2CCCO2)CC4)CC1 (stereo partly drawn) [Compound I-88, (1R)-2-((R)-4-(((1r,4R)-4-(dimethylamino)cyclohexyl)oxy)-6,7-dihydro-5H-cyclopenta[4,5]thieno[2,3-d]pyrimidin-5-yl)-1-(tetrahydrofuran-2-yl)ethanol]
	≥ 5000	≥ 5000	Cn1cc(Nc2nc(O[C@H]3CC[C@H](N(C)C)CC3)c3c4c(sc3n2)CCC4CC(N)=O)cn1 (stereo in doubt) [Compound I-222, 2-[(3R)-12-[[4-(dimethylamino)cyclohexyl]oxy]-10-[(1-methyl-1H-pyrazol-4-yl)amino]-7-thia-9, 11-diazatricyclo[6.4.0.0[2,6]]dodeca-1(8),2(6),9,11-tetraen-3-yl]acetamide]
	≤ 500	≤ 500	NC(=O)C(O)C[C@H]1CCc2sc3ncnc(O[C@H]4CC[C@H](N5CCOCC5)CC4)c3c21 (mixture of isomers) [Compound I-87, 2-hydroxy-3-((R)-4-(((1r,4R)-4-morpholinocyclohexyl)oxy)-6,7-dihydro-5H-cyclopenta[4,5]thieno[2,3-d]pyrimidin-5-yl)propanamide]
